Counter-ions that a name gives are not always drawn.
What was measured:
thrombin = experiment: Antithrombin activity (recalcification time of plasma); conditions: rabbit plasma
Method: Citrated blood (3.5% sodium citrate: blood=1:9) was drawn from a white native male rabbit (3 to 3.5 kg in body weight). The blood was centrifuged at 3000 rpm to prepare plasma which was used in the following experiment. One milliliter of the plasma was put in a small test tube having an inside diameter of 12 mm, and incubated at 37° C. Then, 0.1 ml of each of the test compounds, dissolved in PBS, was added, and the mixture was further incubated at 37° C. for 2 minutes. Then, 0.2 ml of 0.02 M CaCl2 was added, and a microchronometer was started. While occasionally shaking the test tube, the time which elapsed until the plasma coagulated was measured. As a control, PBS was used.

plasmin = biological target: T1, plasmin (Homo sapiens, UniProt P00747); experiment: Antiplasmin activity (clot lysis time, fibrinogen/urokinase/thrombin); format: biochemical
T1 construct: fibrin clot lysis, native
Method: Human fibrinogen was dissolved in a phosphate-buffered physiological saline (PBS) at a pH of 7.4 to prepare a 0.2% solution. Urokinase and thrombin were dissolved similarly in PBS to prepare a solution containing 120 units of urokinase and 50 units of thrombin per ml. […] Then, 0.1 ml of the urokinase-thrombin mixed solution was added, and a microchronometer was started. One minute after the starting of the microchronometer, a glass ball having a diameter of 8 mm was put on the coagulated surface, and the incubation was continued. The time which elapsed from the dissolution of the coagulated mass until the glass ball dropped onto the bottom of the test tube was measured. As a control, PBS alone was added.

serotonin ulcer = experiment: Inhibitory activity on serotonin ulcer; format: in vivo, SD-strain male rats; conditions: 30 min before serotonin 20 mg/kg s.c., rats
Method: Seven week-old SD-strain male rats (body weight 200 to 220 g) were fasted for 24 hours but water was provided freely, and then used in the following experiment. Each of the test compounds suspended in 0.5% CMC was administered to the rats either orally or intraperitoneally, and 30 minutes later, serotonin (serotonin creatinine sulfate) was subcutaneously administered to the rats in a dose of 20 mg/kg. Four hours later, the animals were sacrificed. The abdomen was cut open, and the stomach was taken out from each animal. 12 ml of 1% formalin was injected into the stomach to inflate it, and the stomach was further dipped for about 10 minutes in 1% formalin for fixation. Then, the stomach was cut open on the side of the lesser curvature, and spread on a glass plate. The area of ulcers generated in the glandular stomach was measured by using a solid microscope. The sum of the area of ulcer for each animal was used as the ulcer index. The ulcer inhibiting ratio of the test compound was calculated in accordance with the following equation. [formula] The control group was given 0.5% CMC and serotonin alone.

indomethacin ulcer = experiment: Inhibitory activity on indomethacin ulcer; format: in vivo, SD-strain male rats; conditions: 400 mg/kg oral, 30 min before indomethacin 20 mg/kg oral, rats
Method: Seven week-old SD-strain male rats (body weight 200 to 220 g) were fasted for 24 hours but water was provided freely, and then used in the following experiment.
Each of the test compounds suspended in 0.5% CMC was orally administered to the rats, and 30 minutes later, indomethacin was orally administered in a dose of 20 mg/kg. Six hours later, the animals were sacrificed. The abdomen was cut open, and the stomach was removed. 1% Evan's blue was injected in an amount of 0.5 ml/rat into the rats through the tail vein under ether anesthesia 10 minutes before sacrificing.
12 ml of a 1% formalin was injected into the stomach and the stomach was further dipped in 1% formalin for about 10 minutes for the fixation. The stomach was cut open on the side of the greater curvature, and spread on a glass plate. The lengths of ulcers generated in the glandular stomach were measured by using a solid microscope. The sum of the lengths of the ulcers for each animal was used as the ulcer index. The ulcer inhibiting ratio of the test compound was calculated in accordance with the following equation. [formula]
The control group was given 0.5% CMC and indomethacin alone.

gastric secretion = experiment: Inhibitory activity on gastric secretion (pylorus ligation); format: in vivo, male rats; conditions: for Amount of gastric juice: 4 hours after pylorus ligation, control 6.8 ± 0.6, in ml (unit assumed); for Acidity: control 109.1 ± 1.7
Method: Seven week-old DS-strain male rats (body weight 200 to 220 g) were fasted for 24 hours but water was provided freely, and then used in the following experiment.
The rats were anesthetized with ether. The abdomen was cut open along the median line to expose the pylorus. Then, the pylorus was ligated. After ligation, each of the test compounds dissolved in physiological saline was intraperitoneally administered to the animals. The abdomen was sutured, and after confirming that the animals recovered from ether anesthesia, they were kept in a wire cage while being deprived of food and water. Four hours later, the animals were killed by using ether. The abdomen was again cut open, and the stomach was removed. The gastric juice was collected, and its volume and acidity was measured. The acidity of the gastric juice was determined by titrating with 0.05 N sodium hydroxide using phenolphthalein as an indicator, and calculating the amount of sodium hydroxide required to neutralize the gastric juice which is estimated as the acidity of the gastric juice.
The control group was given physiological saline alone.
For the method of studying the inhibitory activity on the gastiic secretion, reference may be made to H. Shay, S. A. Komoroe, S. S. Fels, M. Meraze, M. Gruestein and H. Siplet: Gastroent., 5, 43 (1945), and M. L. Anson: J. Gen, Physiol., 21, 79 (1938).

[1] = 5 × 10^-3 M, second series, control 103.3 ± 7.6
[2] = 5 × 10^-4 M, second series, control 103.3 ± 7.6
[3] = 10^-3 M, first series, control 391.7 ± 16.1
[4] = 10^-4 M, first series, control 391.7 ± 16.1
[5] = 10^-3 M, second series, control 556.7 ± 12.6
[6] = 10^-4 M, second series, control 556.7 ± 12.6

T1 sequence (P00747 97-810): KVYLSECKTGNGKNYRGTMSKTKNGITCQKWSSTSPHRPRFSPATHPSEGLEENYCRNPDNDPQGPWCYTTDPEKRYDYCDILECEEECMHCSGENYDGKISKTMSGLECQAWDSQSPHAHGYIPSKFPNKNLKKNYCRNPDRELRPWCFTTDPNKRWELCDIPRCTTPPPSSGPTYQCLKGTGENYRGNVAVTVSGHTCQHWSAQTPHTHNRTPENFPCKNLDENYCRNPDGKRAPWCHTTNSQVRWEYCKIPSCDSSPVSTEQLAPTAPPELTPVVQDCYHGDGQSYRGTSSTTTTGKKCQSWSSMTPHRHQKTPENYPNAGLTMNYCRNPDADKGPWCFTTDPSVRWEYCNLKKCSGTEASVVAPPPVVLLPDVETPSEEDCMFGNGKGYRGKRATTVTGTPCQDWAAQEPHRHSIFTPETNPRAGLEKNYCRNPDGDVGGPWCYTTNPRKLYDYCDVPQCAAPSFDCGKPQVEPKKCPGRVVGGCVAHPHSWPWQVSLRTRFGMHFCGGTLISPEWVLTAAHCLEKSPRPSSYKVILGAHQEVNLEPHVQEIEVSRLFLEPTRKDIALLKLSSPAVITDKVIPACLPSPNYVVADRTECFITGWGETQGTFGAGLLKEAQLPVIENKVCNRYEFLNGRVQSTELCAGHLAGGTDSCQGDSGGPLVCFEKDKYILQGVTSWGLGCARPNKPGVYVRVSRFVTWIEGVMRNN

`Cl.NC[C@H]1CC[C@H](C(O)c2ccc(CCC(=O)O)cc2)CC1` (relative stereo) [trans (307) hydrochloride, 3-[p-(trans-4-aminomethylcyclohexylhydroxymethyl)phenyl]propionic acid hydrochloride] was tested, and the Recalcification time (thrombin; [1]) was 80.7 s, the Recalcification time (thrombin; [2]) was 104.0 s and the Clot lysis time (plasmin; [3]) was 546.7 s. The Clot lysis time (plasmin; [4]) was 411.7 s and the Ulcer inhibiting ratio (serotonin ulcer; 100 mg/kg intraperitoneal) was 68.7%.

For `Cl.NCCCCCC(=O)c1ccc(CCC(=O)O)cc1` [(102) hydrochloride, 3-[p-(ε-aminocaproyl)phenyl]propionic acid hydrochloride], the Recalcification time (thrombin; [1]) was 67.0 s, the Recalcification time (thrombin; [2]) was 98.3 s and the Clot lysis time (plasmin; [3]) was 476.7 s. It also gave a Clot lysis time (plasmin; [4]) of 423.3 s and a Ulcer inhibiting ratio (serotonin ulcer; 100 mg/kg intraperitoneal) of 76.2%.

`Cl.NCc1ccc(C(=O)c2ccc(CCC(=O)O)cc2)cc1` [(112) hydrochloride, 3-[p-(4-aminomethylbenzoyl)phenyl]propionic acid hydrochloride] showed a Ulcer inhibiting ratio (serotonin ulcer; 200 mg/kg oral) of 95.6%.

`CCOC(=O)CCc1ccc(C(=O)CCCCCN)cc1` [(121) hydrochloride, ethyl 3-[p-ε-aminocaproyl)phenyl]propionate hydrochloride] showed a Ulcer inhibiting ratio (indomethacin ulcer) of 89.7%, a Recalcification time (thrombin; [1]) of 96.0 s and a Clot lysis time (plasmin; [5]) of 670.0 s. For the same compound, the Clot lysis time (plasmin; [6]) was 543.3 s, the Ulcer inhibiting ratio (serotonin ulcer; 100 mg/kg oral) was 72.3% and the “Inhibition ratio (acidity)” value (gastric secretion; 50 mg/kg i.p.) was 48.9%. The “Inhibition ratio (amount of gastric juice)” value (gastric secretion; 50 mg/kg i.p.) was 77.9%, the “Amount of gastric juice” value (gastric secretion; 50 mg/kg i.p.) was 1.5 ± 0.4 and the Acidity (gastric secretion; 50 mg/kg i.p.) was 55.7 ± 9.3 μeq./ml. For the same compound, the “Inhibition ratio (acidity)” value (gastric secretion; 100 mg/kg i.p.) was 58.9%, the “Inhibition ratio (amount of gastric juice)” value (gastric secretion; 100 mg/kg i.p.) was 94.1% and the “Amount of gastric juice” value (gastric secretion; 100 mg/kg i.p.) was 0.4 ± 0.1. The Acidity (gastric secretion; 100 mg/kg i.p.) was 44.8 ± 5.0 μeq./ml, the “Inhibition ratio (acidity)” value (gastric secretion; 200 mg/kg i.p.) was 74.4% and the “Inhibition ratio (amount of gastric juice)” value (gastric secretion; 200 mg/kg i.p.) was 94.1%. For the same compound, the “Amount of gastric juice” value (gastric secretion; 200 mg/kg i.p.) was 0.4 ± 0.1 and the Acidity (gastric secretion; 200 mg/kg i.p.) was 27.9 ± 4.4 μeq./ml.

In the case of `NCCCCCC(O)c1ccc(CCC(=O)O)cc1` (stereo not shown) [(302), 3-[p-(6-amino-1-hydroxyhex-1-yl)phenyl]-propionic acid], the Recalcification time (thrombin; [1]) is reported as 82.7 s, the Clot lysis time (plasmin; [5]) is reported as 736.7 s and the Clot lysis time (plasmin; [6]) is reported as 521.7 s. The Ulcer inhibiting ratio (serotonin ulcer; 100 mg/kg oral) was 68.1%.

Compound `NCC1CCC(C(=O)Oc2ccc(CCC(=O)O)cc2)CC1` (stereo not shown) [drawing 47, reference compound] has a Ulcer inhibiting ratio (serotonin ulcer; 100 mg/kg oral) of 17.5% and a Ulcer inhibiting ratio (serotonin ulcer; 300 mg/kg oral) of 73.8%.

In the case of `NCC1CCC(C(=O)Oc2ccc(CCC(=O)O)cc2)CC1` (stereo not shown) [drawing 52, reference compound], the “Inhibition ratio (acidity)” value (gastric secretion; 200 mg/kg i.p.) is reported as 52.5%, the “Inhibition ratio (amount of gastric juice)” value (gastric secretion; 200 mg/kg i.p.) is reported as 72.1% and the “Amount of gastric juice” value (gastric secretion; 200 mg/kg i.p.) is reported as 1.9 ± 0.6. The Acidity (gastric secretion; 200 mg/kg i.p.) was 51.8 ± 10.0 μeq./ml, the “Inhibition ratio (acidity)” value (gastric secretion; 400 mg/kg i.p.) was 70.3% and the “Inhibition ratio (amount of gastric juice)” value (gastric secretion; 400 mg/kg i.p.) was 86.8%. The “Amount of gastric juice” value (gastric secretion; 400 mg/kg i.p.) was 0.9 ± 0.2 and the Acidity (gastric secretion; 400 mg/kg i.p.) was 32.4 ± 2.4 μeq./ml.

In the case of `NCC1CCC(C(=O)Oc2ccc(CCC(=O)O)cc2)CC1` (stereo not shown) [drawing 54, reference compound], the Clot lysis time (plasmin; [3]) is reported as over 1800 s, the Clot lysis time (plasmin; [4]) is reported as over 1800 s and the Clot lysis time (plasmin; 10^-5 M, first series, control 391.7 ± 16.1) is reported as 1045.0 ± 13.2 s. The Clot lysis time (plasmin; 10^-6 M, first series, control 391.7 ± 16.1) was 441.7 ± 21.8 s.

`NCC1CCC(C(=O)Oc2ccc(CCC(=O)O)cc2)CC1` (stereo not shown) [drawing 56, reference compound] gave a Clot lysis time (plasmin; 10^-5 M, second series, control 556.7 ± 12.6) of 1398 ± 53.0 s and a Clot lysis time (plasmin; 10^-6 M, second series, control 556.7 ± 12.6) of 600.0 ± 37.7 s.

With `NCC1CCC(C(=O)Oc2ccc(CCC(=O)O)cc2)CC1` (stereo not shown) [drawing 58, reference compound] the Recalcification time (thrombin; 5 × 10^-4 M, first series, […]) was 122.7 ± 2.5 s and the Recalcification time (thrombin; 5 × 10^-5 M, first series, […]) was 115.3 ± 1.2 s.

`NCC1CCC(C(=O)Oc2ccc(CCC(=O)O)cc2)CC1` (stereo not shown) [drawing 60, reference compound] was tested, and the Recalcification time (thrombin; 5 × 10^-5 M, second series, control 103.3 ± 7.6) was 144.0 ± 2.6 s and the Recalcification time (thrombin; 5 × 10^-6 M, second series, control 103.3 ± 7.6) was 114.7 ± 2.5 s.
